We go through 17 compounds from PubChem BioAssay AID2060611 (Molecular Pharmacology Branch, DTP, NCI, 2025).

Molecules are shown by their SMILES. “And” between values parts separate entries of the source, which are not always exact repeats. Equal entries are not always repeated. Bounds are passed on as bounds.

The assay has as its system 628569-122-R-J1-PDC complex spheroid viability. Kind of assay: Anticancer human tumor 628569-122-R-J1-PDC patient-derived head and neck squamous carcinoma cell line growth inhibition [CLK]. The conditions noted are these: for viability, T/C: stronger effect = lower value. The text has this: A high-throughput screen of multi-cell type tumor spheroids was designed to identify active combinations of […] and targeted small molecules. Complex spheroids include a stromal component modeled by human endothelial cells (HUVEC) and fibroblasts modeled by human mesenchymal stem cells (MSCs). The concentration ranges selected for each drug and investigational agent were based upon clinically achievable concentrations if the clinical Cmax of the agent was known.
Compounds. The drugs and investigational agents: cirtuvivint (SM08502; NSC835563), CC-671 (NSC850746), vemurafenib (NSC761431), tapotoclax (NSC804041), sotorasib (NSC818433), adagrasib (NSC831453), MRTX-1133 (NSC836407), BAY2416964 (NSC825713), copanlisib (NSC816437), inavolisib (NSC800729), abemaciclib (NSC768073), osimertinib (NSC779217), entinostat (NSC756642), eltanexor (KPT-8602, NSC794443), venetoclax (NSC766270), ceralasertib (NSC777638), bortezomib (NSC756655), olaparib (NSC753686), talazoparib (NSC767125), alisertib (NSC759677), peposertib (NSC802822), gemcitabine (NSC613327), 5-fluorouracil (NSC19893), SN-38 (NSC673596), oxaliplatin (NSC266046), paclitaxel (NSC125973), and doxorubicin (NSC123127), were obtained from the National Cancer Institute (NCI) Developmental Therapeutics Program Chemical Repository. The FDA-approved anticancer drug set is available from the Developmental Therapeutics Program at https://dtp.cancer.gov/organization/dscb/obtaining/available plates.htm. […] The stock solutions were prepared in dimethyl sulfoxide (DMSO, Sigma-Aldrich, St. Louis, MO, cat. D2650), except for the platinum complexes which were prepared in saline (Quality Biological, Gaithersburg, MD, cat. 114-055-101), at 800-fold the tested concentration and stored at -70 degrees C prior to their use. All drugs and investigational agents were tested over a range starting from a high concentration at or near the clinical Cmax and decreasing in half-log increments. If the clinical Cmax for an agent had not been determined, the highest concentration tested was 10 microM.
Cell Culture. All cells were maintained in an incubator at 37 degrees C and 5% CO2 with 95% humidity. The PDC lines were cultured according to standard operating procedures established by the NCI PDMR. Briefly, all PDCs were thawed and cultured in Matrigel-coated flasks prepared with a working solution of 1X Ham's F-12 nutrient mix, without supplementation (Invitrogen, Waltham, MA, cat. 11765054), 100 U/mL penicillin-streptomycin (Invitrogen, cat. 15140122), and 2.5% Matrigel (Corning Inc., Corning, NY, cat. 354248) for the first three passages. The 947758-054-R-J2-PDC line was cultured in 6B/Colon 1A media, which includes advanced DMEM/F-12 (Thermo Fisher Scientific, cat. 12634028), 10 mM HEPES (Thermo Fisher Scientific, cat. 15630080), 1X GlutaMAX supplement (Thermo Fisher Scientific, cat. 35050061), 0.1 mg/mL primocin (InvivoGen, cat. ant-pm-2), 10% defined fetal bovine serum, heat inactivated (HyClone Laboratories Inc., cat. SH30070.03HI), 1.25 mM N-Acetyl-L-cysteine (Sigma-Aldrich, cat. A9165), 10 mM nicotinamide (Sigma-Aldrich, cat. N0636), 1X B-27 supplement (Thermo Fisher Scientific, cat. 17504044), 1X N-2 supplement (Thermo Fisher Scientific, cat. 17502048), and 10 microM Y-27632 dihydrochloride (Tocris Bioscience, cat. 1254). The 876862-298-R-J1-PDC was cultured in 6E media, which includes all 6B/Colon 1A media components plus 50% L-WRN conditioned media (ATCC, cat. CRL-3276), 50 ng/mL recombinant human EGF recombinant protein (hEGF; Thermo Fisher Scientific, cat. PHG0311), 10 ng/mL recombinant human fibroblast growth factor 10 (hGFG-10; PeproTech, cat. 100-26), 1 ng/mL recombinant human fibroblast growth factor 2 (hFGF-2; PeproTech, cat. 100-18B), and 1 µM prostaglandin E2 (PGE2; Tocris, cat. 2296). The 227483-062-R1-J1-PDC line was cultured in Panc media, containing all 6E components except hFGF-2, with the addition of 500 nM SB-431542 (Selleckchem, cat. S1067) and 10 nM gastrin (Tocris, cat. 3006). […]
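Further: spheroids exposed to agents for seven days before readout.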

Broadly, the viability, T/C is the ratio of treated to control. Broadly, the IC50 is the midpoint of a concentration-inhibition curve. Regarding `C#Cc1c(F)ccc2cc(O)cc(-c3ncc4c(N5CC6CCC(C5)N6)nc(OCC56CCCN5CC(F)C6)nc4c3F)c12` (configuration not stated), the viability, T/C runs as follows: (compound 0.0316 µM) 88.1% and 89.3%; (compound 0.1 µM) 88.5% and 80.7%; (compound 0.316 µM) 73.6% and 65.8%; (compound 1 µM) 68.5% and 81%; (compound 3.16 µM) 92% and 112%; (compound 10 µM) 120% and 91.5%. In addition, where the note is “curve of compound”, the IC50 is over 10000 nM.
As for `C=C(F)C(=O)N1CCN(c2nc(OCC3CCCN3C)nc3c2CCN(c2cccc4cccc(Cl)c24)C3)CC1CC#N` (configuration not stated), the viability, T/C was 79.5% and 98.1% (compound 0.0316 µM); 108% and 77.6% (compound 0.1 µM); 85.4% and 79.5% (compound 0.316 µM); 93.6% and 82.5% (compound 1 µM); 116% and 123% (compound 3.16 µM); 12.6% and 30.3% (compound 10 µM). For the same compound, where the note is “curve of compound”, the IC50 was 5990 nM and 6930 nM.
With `C=CC(=O)N1CCN(c2nc(=O)n(-c3c(C)ccnc3C(C)C)c3nc(-c4c(O)cccc4F)c(F)cc23)C(C)C1` (configuration not stated), the viability, T/C was 88.8% and 84.2% (compound 0.0316 µM); 95.5% and 87.3% (compound 0.1 µM); 92.8% and 92.9% (compound 0.316 µM); 113% and 101% (compound 1 µM); 124% and 132% (compound 3.16 µM); 118% and 124% (compound 10 µM). In addition, where the note is “curve of compound”, the concentration for half-maximal inhibition (IC50) was over 10000 nM.
With `C=CC(=O)Nc1cc(Nc2nccc(-c3cn(C)c4ccccc34)n2)c(OC)cc1N(C)CCN(C)C`, the viability, T/C is 81.8% and 77.8% (compound 0.000949 µM); 105% and 86.5% (compound 0.003 µM); 92.6% and 78.3% (compound 0.00949 µM); 73.7% and 73.6% (compound 0.03 µM); 98.9% and 71.4% (compound 0.0949 µM); 71.7% and 55.5% (compound 0.3 µM). In addition, the IC50 (curve of compound) is over 300 nM.
For the compound `CC(C)CC(NC(=O)C(Cc1ccccc1)NC(=O)c1cnccn1)B(O)O` (configuration not stated), the viability, T/C was 86.3% and 91.7% (compound 0.000949 µM); 68% and 73.5% (compound 0.003 µM); 16.2% and 14.8% (compound 0.00949 µM); 8.01% and 3.1% (compound 0.03 µM); 7.3% and 7.41% (compound 0.0949 µM); 6.04% and 11.3% (compound 0.3 µM). The IC50 (curve of compound) was 4.47 nM and 4.75 nM.
In the case of `CC(CO)NC(=O)c1cc(-c2ccc(Cl)cc2)nn(-c2cnn(C)c2)c1=O` (configuration not stated), the viability, T/C was 112% and 116% (compound 0.0316 µM); 123% and 158% (compound 0.1 µM); 177% and 202% (compound 0.316 µM); 169% and 217% (compound 1 µM); 175% and 243% (compound 3.16 µM); 149% and 181% (compound 10 µM). Further, where the note is “curve of compound”, the IC50 is over 10000 nM.
As to `CC(Nc1ccc2c(c1)OCCn1cc(N3C(=O)OCC3C(F)F)nc1-2)C(N)=O` (configuration not stated), the viability, T/C runs as follows: (compound 0.0316 µM) 66.2% and 56.2%; (compound 0.1 µM) 68.1% and 60.1%; (compound 0.316 µM) 39.3% and 46.8%; (compound 1 µM) 40.2% and 37.5%; (compound 3.16 µM) 32% and 39.5%; (compound 10 µM) 18.5% and 29.7%. For the same compound, for the setting “curve of compound”, the IC50 was 279 nM and 217 nM.
In the case of `CCCS(=O)(=O)Nc1ccc(F)c(C(=O)c2c[nH]c3ncc(-c4ccc(Cl)cc4)cc23)c1F`, the viability, T/C by setting is: (compound 0.0316 µM) 107% and 87%; (compound 0.1 µM) 88.2% and 74.5%; (compound 0.316 µM) 94.3% and 70.7%; (compound 1 µM) 108% and 71.2%; (compound 3.16 µM) 104% and 77.5%; (compound 10 µM) 83.7% and 70.3%. Moreover, the IC50 (curve of compound) is over 10000 nM.
Consider `CCN1CCN(Cc2ccc(Nc3ncc(F)c(-c4cc(F)c5nc(C)n(C(C)C)c5c4)n3)nc2)CC1`, for which the viability, T/C reads like this: (compound 0.00316 µM) 86.6% and 89.6%; (compound 0.01 µM) 81.3% and 70%; (compound 0.0316 µM) 73.7% and 72.2%; (compound 0.1 µM) 70.1% and 68.2%; (compound 0.316 µM) 105% and 79.5%; (compound 1 µM) 182% and 142%. Besides, where the note is “curve of compound”, the IC50 is over 1000 nM.
For `CCc1c2c(nc3ccc(O)cc13)-c1cc3c(c(=O)n1C2)COC(=O)[C@]3(O)CC`, the viability, T/C runs as follows: (compound 0.00316 µM) 69.5% and 53%; (compound 0.01 µM) 50.6% and 38%; (compound 0.0316 µM) 50.3% and 45.5%; (compound 0.1 µM) 41.7% and 39%; (compound 0.316 µM) 35.8% and 39%; (compound 1 µM) 8.79% and 15.5%.
Take `CN1CCN(c2cc(C(=O)Nc3cc4cc(-c5cnn(C)c5)ccc4cn3)ccn2)CC1`: the viability, T/C is, setting by setting: (compound 0.0316 µM) 104% [middle of 12 runs]; (compound 0.1 µM) 69.2% [middle of 12 runs]; (compound 0.316 µM) 35.6% [middle of 12 runs]; (compound 1 µM) 5.28% [middle of 12 runs]; (compound 3.16 µM) 7.69% [middle of 12 runs]; (compound 10 µM) 6.81% [middle of 12 runs]. Moreover, where the note is “compound alone, run of 09/18/2023”, the IC50 is 187 nM [middle of 12 runs].
Turning to `CNC(=O)c1ccc(Nc2nc(OC3CCCC3)c3c(-c4ccc5nc(C)oc5c4)c[nH]c3n2)c(OC)c1`, the viability, T/C is, setting by setting: (compound 0.0316 µM) 95.7% [middle of 12 runs]; (compound 0.1 µM) 60.6% [middle of 12 runs]; (compound 0.316 µM) 54.9% [middle of 12 runs]; (compound 1 µM) 44.6% [middle of 12 runs]; (compound 3.16 µM) 40.7% [middle of 12 runs]; (compound 10 µM) 41.4% [middle of 12 runs].
On to `COC1C=CCC(C)C(C)S(=O)(=O)NC(=O)c2ccc3c(c2)N(CC2CCC21)CC1(CCCc2cc(Cl)ccc21)CO3` (configuration not stated), for which the viability, T/C (compound 0.0316 µM) is 101% and 91.8%; the viability, T/C (compound 0.1 µM) was 107% and 82.2%; the viability, T/C (compound 0.316 µM) is 73% and 64.9%; the viability, T/C (compound 1 µM) is 57.9% and 45.1%; the viability, T/C (compound 3.16 µM) is 42.4% and 42.2%; the viability, T/C (compound 10 µM) was 36.5% and 33.7%. For the same compound, the IC50 (curve of compound) is 1490 nM and 826 nM.
Turning to `COc1c(OCCCN2CCOCC2)ccc2c3n(c(=NC(=O)c4cnc(N)nc4)nc12)CCN3`, the viability, T/C is, setting by setting: (compound 0.00316 µM) 79.2% and 77.8%; (compound 0.01 µM) 61.3% and 39.7%; (compound 0.0316 µM) 33.9% and 37.7%; (compound 0.1 µM) 21.9% and 23.6%; (compound 0.316 µM) 15.5% and 12.8%; (compound 1 µM) 4.99% and 10.7%. For the setting “curve of compound”, the concentration for half-maximal inhibition (IC50) is 16 nM and 9.1 nM.
As for `Cn1ncnc1[C@H]1c2n[nH]c(=O)c3cc(F)cc(c23)N[C@@H]1c1ccc(F)cc1`, the viability, T/C is 90.7% and 78.8% (compound 0.000316 µM); 96.5% and 103% (compound 0.001 µM); 97.3% and 61.4% (compound 0.00316 µM); 89.6% and 93.2% (compound 0.01 µM); 67.8% and 81.5% (compound 0.0316 µM); 69.2% and 63.6% (compound 0.1 µM). Also, the IC50 (curve of compound) is over 100 nM.
Take `NC(=O)C(=Cn1cnc(-c2cc(C(F)(F)F)cc(C(F)(F)F)c2)n1)c1cncnc1`: the viability, T/C is 71.1% and 74% (compound 0.00949 µM); 66.9% and 66.1% (compound 0.03 µM); 52.1% and 56.7% (compound 0.0949 µM); 63.8% and 49.3% (compound 0.3 µM); 44.3% and 35.1% (compound 0.949 µM); 41.7% and 33.4% (compound 3 µM). The IC50 (curve of compound) is 666 nM and 210 nM.
`Nc1ccccc1NC(=O)c1ccc(CNC(=O)OCc2cccnc2)cc1`: the viability, T/C runs as follows: (compound 0.0316 µM) 91% and 99.9%; (compound 0.1 µM) 87.9% and 94.8%; (compound 0.316 µM) 123% and 125%; (compound 1 µM) 151% and 140%; (compound 3.16 µM) 135% and 121%; (compound 10 µM) 52.9% and 43.9%. Moreover, the IC50 (curve of compound) was > 10000 nM and 9090 nM.
